In test [1] the target is T1, Serine/threonine-protein kinase DCLK3 (Homo sapiens) (UniProt Q9C098).
T1 sequence (whole entry): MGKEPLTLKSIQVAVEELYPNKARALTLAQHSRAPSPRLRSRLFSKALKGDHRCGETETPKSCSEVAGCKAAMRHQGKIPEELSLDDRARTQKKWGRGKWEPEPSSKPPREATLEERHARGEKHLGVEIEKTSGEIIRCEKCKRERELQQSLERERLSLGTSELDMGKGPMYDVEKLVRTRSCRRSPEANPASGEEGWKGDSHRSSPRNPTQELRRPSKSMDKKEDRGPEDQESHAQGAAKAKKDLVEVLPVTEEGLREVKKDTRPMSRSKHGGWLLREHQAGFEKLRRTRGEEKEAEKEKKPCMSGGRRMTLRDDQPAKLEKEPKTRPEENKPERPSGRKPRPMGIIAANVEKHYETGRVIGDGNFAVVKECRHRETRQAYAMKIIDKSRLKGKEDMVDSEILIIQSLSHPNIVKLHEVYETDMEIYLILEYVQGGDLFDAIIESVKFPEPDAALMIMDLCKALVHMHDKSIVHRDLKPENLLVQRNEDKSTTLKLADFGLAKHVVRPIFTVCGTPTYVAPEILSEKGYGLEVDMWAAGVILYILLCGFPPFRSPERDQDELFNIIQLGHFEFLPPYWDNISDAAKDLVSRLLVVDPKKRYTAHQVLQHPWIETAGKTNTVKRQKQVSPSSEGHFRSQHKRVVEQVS
Kind of test: Inhibition of wild type human DCAMKL3 (M1 to G289 residue) expressed in bacterial expression system assessed as protein activity at 0.5 uM relative to control. More on the design: scale not given: the % may be the effect or the level left.

The target of test [2] is Calcium/calmodulin-dependent protein kinase type II subunit beta (Homo sapiens) (UniProt Q13554). Kind of test: Inhibition of wild type human CAMK2B (M1 to Q380 residues) expressed in bacterial expression system assessed as protein activity at 0.5 uM relative to control. Also noted: scale not given: the % may be the effect or the level left.
Test [3] deals with HT-29. Put plainly: Induction of gamma-H2A.X in human HT-29 cells at 0.12 to 3.3 uM incubated for 12 hrs in presence of gemcitabine by Western blot analysis. The note with it: dose 0.12-3.3 µM. The class given is functional, cell-based. In general terms: A western blot detects proteins with antibodies after separation by electrophoresis.
Test [4] concerns MV4-11. Put plainly: Antitumor activity against human MV4-11 cells xenografted in mouse assessed as inhibition of tumor growth at 15 mg/kg, po dosed for 21 days measured twice every week relative to control. The class given is functional. To be noted: MV4-11, po, 504 h, time 21 day, read-out: TGI. For orientation: Xenograft models place foreign cells or tissue in a host animal.

Test [5] has as its system MV4-11. Put plainly: Antitumor activity against human MV4-11 cells xenografted in mouse assessed as inhibition of tumor growth at 30 mg/kg, po dosed for 21 days measured twice every week relative to control. The class given is functional. The note with it: MV4-11, po, 504 h, time 21 day, read-out: TGI.
The test system of test [6] is HT-29. Put plainly: Antitumor activity against human HT-29 cells xenografted in mouse assessed as reduction in tumor growth by measuring T/C ratio at 30 mg/kg, po dosed 5 days/week for 22 days measured twice every week. The note with it: time 22 day. It is filed as functional.
In the next test the test system is Mus musculus. Put plainly: Downregulation of S296 phosphorylation in tumor of mouse xenografted with human HT-29 cells at 30 mg/kg, po dosed 5 days/week for 22 days cotreated with gemcitabine by Western blot analysis. It is filed as functional, organism-based. The note with it: time 22.0 day.
The subject of test [7] is HT-29. Put plainly: Antiproliferative activity against human HT-29 cells incubated for 72 hrs by CCK8 assay. It is filed as functional, cell-based.

Structures are written as SMILES. Activity calls are given as the source filed them. The calls are words filed in the database; no cut-off is given here.

In general, T/C refers to the ratio of treated to control.

Calcium/calmodulin-dependent protein kinase type II subunit beta (Homo sapiens), sequence (Q13554 whole entry, the tested form may be a part): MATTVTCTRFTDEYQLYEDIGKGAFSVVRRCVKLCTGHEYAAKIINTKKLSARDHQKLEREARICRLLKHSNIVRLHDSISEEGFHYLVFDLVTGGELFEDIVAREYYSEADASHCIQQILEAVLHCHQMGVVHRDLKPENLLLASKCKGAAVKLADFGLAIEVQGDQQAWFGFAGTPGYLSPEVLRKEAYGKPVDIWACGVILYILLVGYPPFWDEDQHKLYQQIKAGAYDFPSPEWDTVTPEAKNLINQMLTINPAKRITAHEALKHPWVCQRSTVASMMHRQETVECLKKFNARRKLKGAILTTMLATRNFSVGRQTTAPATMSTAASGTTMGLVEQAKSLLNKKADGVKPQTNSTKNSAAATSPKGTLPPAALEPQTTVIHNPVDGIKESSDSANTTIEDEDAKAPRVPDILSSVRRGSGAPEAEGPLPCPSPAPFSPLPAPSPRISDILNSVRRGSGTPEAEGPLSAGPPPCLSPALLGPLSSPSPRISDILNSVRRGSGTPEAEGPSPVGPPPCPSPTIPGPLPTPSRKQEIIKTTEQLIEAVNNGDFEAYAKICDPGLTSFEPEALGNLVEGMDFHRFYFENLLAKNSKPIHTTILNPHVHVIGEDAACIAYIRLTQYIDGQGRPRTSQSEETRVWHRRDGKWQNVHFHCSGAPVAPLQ

In the case of `CC(C)(N)CCNc1nc(Nc2ccc(C#N)nc2)ncc1C(F)(F)F`, the Activity in test [1] worked out at 7%; in test [2] it was 18%. The outcome in the test on HT-29 [3], with Mus musculus and in the test on HT-29 [7] was Active. The inhibition in vivo at 15 mg/kg with MV4-11 [4] came to 95.5%. In addition, the inhibition in vivo at 30 mg/kg in the test with MV4-11 [5] came to 94.9%. The T/C in the test on HT-29 [6] is recorded as 69.05%.

(Values after ChEMBL document CHEMBL4828771, “Discovery and Development of a Potent, Selective, and Orally Bioavailable CHK1 Inhibitor Candidate: 5-((4-((3-Amino-3-methylbutyl)amino)-5-(trifluoromethyl)pyrimidin-2-yl)amino)picolinonitrile” (J Med Chem, 2021).)
